Experimental data from ChEMBL document CHEMBL1126359, “Synthesis and pharmacological activity of rationally designed inhibitors of the leukotriene A4 hydrolase enzyme” (Bioorg Med Chem Lett, 1992).

Assays:
[1] = target: T1, Leukotriene A-4 hydrolase (Homo sapiens) (UniProt P09960); experiment: Inhibition of Leukotriene B4 by inhibiting the conversion of Leukotriene A4 by a purified Leukotriene A4 hydrolase; IE - ineffective
T1 sequence (whole entry): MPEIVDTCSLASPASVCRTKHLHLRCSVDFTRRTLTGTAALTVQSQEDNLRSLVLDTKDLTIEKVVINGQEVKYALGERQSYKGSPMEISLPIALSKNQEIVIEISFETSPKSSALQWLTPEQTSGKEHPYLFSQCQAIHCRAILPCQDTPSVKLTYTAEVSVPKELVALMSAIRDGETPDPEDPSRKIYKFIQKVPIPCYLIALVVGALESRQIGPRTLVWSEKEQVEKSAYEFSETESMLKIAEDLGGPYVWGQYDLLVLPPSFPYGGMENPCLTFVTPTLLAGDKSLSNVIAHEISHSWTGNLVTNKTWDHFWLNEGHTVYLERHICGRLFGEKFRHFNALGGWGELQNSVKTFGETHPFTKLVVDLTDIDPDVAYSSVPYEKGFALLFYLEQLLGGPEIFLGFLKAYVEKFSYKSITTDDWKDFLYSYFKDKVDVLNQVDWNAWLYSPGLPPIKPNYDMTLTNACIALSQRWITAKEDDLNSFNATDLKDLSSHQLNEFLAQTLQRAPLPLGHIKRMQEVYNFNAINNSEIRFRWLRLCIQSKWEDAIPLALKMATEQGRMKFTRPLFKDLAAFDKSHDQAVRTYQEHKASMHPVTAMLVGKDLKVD

HL-60 = experiment: Inhibitory activity against calcium ionophore induced Leukotriene B4 biosynthesis by the promyelocytic leukemia cell line HL-60 at concentrations of 10e-6 M; A - good inhibitory activity; assay type: functional, cell-based; details: Homo sapiens

SMILES	Activity [1]	Activity (HL-60)
CCCCCCCC/C=C\C=C\C1=C[C@@H]2CC[C@@]1(CCCC(=O)O)O2	Ineffective	A
CCCCCCCCCC/C=C/C1=C[C@@H]2CC[C@@]1(CCCC(=O)O)O2	Ineffective	A
